Source: US10786491B2, “Immunomodulation by IAP inhibitors” (Novartis AG, priority 2008, dated 2020)

Experiments:
[1] = test system: BALB/c spleen cells cultured with irradiated C57BL/6 spleen cells; experiment: Allo-reactivity: six day mixed lymphocyte reaction and restimulation; assay type: cell-based, BALB/c mice; settings: 500 nM, six days
Description: After six days, cultures were harvested and cytokine production and spleen cell proliferation was analyzed. […] Cytokines were measured in cell supernatants by ELISA. […] At the conclusion of the cultures described in FIG. 9A, total viable cells were counted by trypan blue exclusion and immune cell subsets were identified by flow cytometry using the markers indicated in FIG. 9B. […] Substantial B cell proliferation occurred in IAP inhibited cultures (FIG. 9B). The activation enhancing effects of IAP inhibition were readily reversed; in allo-reactive T cells, secondary stimulations with anti-CD3 in the absence of inhibitors led to equivalent responses regardless of the previous culture conditions (FIG. 10). Cells stimulated in a six day mixed lymphocyte reaction were recovered and restimulated with anti-CD3 for 48 hours. Cytokines were measured in culture supernatants by ELISA. Sample labels indicated in FIG. 10 refer to the treatment used during the primary stimulation.

[2] = test system: BALB/c splenic CD4+ T cells; experiment: Survival and apoptosis of anti-CD3/anti-CD28 activated CD4+ T cells; assay type: cell-based, BALB/c mice
Description: The role of IAP family members in mature NKT cell survival was assessed. […] After 24 hours viable cells were quantified by trypan blue exclusion, and the resulting cell counts are depicted in FIG. 2A. Apoptotic cells were quantified in the cultures from FIG. 2A using flow cytometry with annexin V and 7-AAD (results are depicted in FIG. 2B).

BALB/c spleen cells = experiment: Cytokine secretion of α-galcer stimulated spleen cells (ELISA); assay type: cell-based, BALB/c mice; settings: 500 nM, 48 hours, versus control compound
Description: In order to determine the functional consequences of IAP inhibition in NKT cells, spleen cells from BALB/c mice were stimulated with the NKT cell specific agonist α-galactosylceramide (α-galcer). […]. After 48 hours, cytokine levels were measured in the culture supernatants by ELISA, and the results are depicted in FIG. 3A (IFNγ) and FIG. 3B (IL-2). […].

B cells = settings: 500 nM; anti-IgM and anti-CD40; 96 hours; compared to control cells
Description: Because the JNK and NF-κB pathways play important roles in signaling down stream of a wide range of immune receptors, we analyzed the effect of IAP inhibitors in several additional immune populations. […] IL-6 was measured in the culture supernatant by ELISA.

splenic CD4+ T cells = experiment: IL-2 production of anti-CD3/anti-CD28 stimulated CD4+ T cells (ELISA); assay type: cell-based, BALB/c mice
B16 mouse melanoma cells = experiment: B16 vaccination and live tumor challenge in vivo; set-up: species or system mice; settings: single oral dose 150 mg/kg in combination with irradiated B16 vaccine; compared with LBW-242 or vaccine alone; days 7-16
Description: . Irradiated B16 mouse melanoma cells (vaccine) were administered to mice on days −14 and −7 with or without a single oral dose of LBW-242 (150 mg/kg). Live B16 tumor cells were implanted into the mice on day 0 (challenge). Tumor volume was measured at 7, 10, 13 and 16 days following the live cell implant. […].

[3] = test system: bone marrow derived dendritic cells; experiment: IL-12 p40 production of bone marrow derived dendritic cells (ELISA); settings: 500 nM; cluster disruption; 24 hours
JNK and NF-κB pathways = experiment: Western blot of JNK phosphorylation and IκB degradation in stimulated CD4+ T cells; assay type: cell-based
Description: In order to investigate the mechanism linking IAP inhibition to enhanced, activation-dependent cytokine production, the effect of IAP inhibition on JNK phosphorylation and IκB degradation in stimulated CD4+ T cells was assessed by Western blot. […] Replicates were combined and cell lysates were analyzed by Western blot for the indicated proteins. PDI was used as a loading control.

CD8+ T cells = experiment: Cytokine production of stimulated CD8+ T cells (ELISA); assay type: cell-based, C57BL/6 mice; settings: anti-CD3 and anti-CD28; 48 hours
Description: Because the observed effect of IAP inhibition in T cells could still depend on alterations in NKT cell function, the consequences of IAP inhibition were assessed in NKT cell deficient CD1d knockout C57BL/6 mice. […] The effect of IAP inhibition was not limited to CD4+ T cells, as CD8+ T cells similarly produced excess IFN-γ and IL-2 after stimulation in the presence of IAP inhibitors (FIG. 5).

[4] = test system: CD4+ T cells from XIAP KO mice; experiment: IL-2 production of XIAP knockout CD4+ T cells (ELISA); settings: anti-CD3 and anti-CD28; 48 hours; versus LCV-843
[5] = test system: CD4+ T cells from MLIAP transgenic mice; experiment: IL-2 production of ML-IAP transgenic CD4+ T cells (ELISA); assay type: cell-based, BALB/c mice; settings: anti-CD3 and anti-CD28; 48 hours
Text: Whether overexpression of ML-IAP, an endogenous SMAC binding protein, could alter the response of T cells to activating stimuli was also examined.

[6] = versus control compound LCV-843
[7] = 500 nM, anti-CD3 and anti-CD28, 24 hours

## CN[C@H](C)C(=O)N[C@@H](C(=O)N1CCC2CCN(CCc3ccccc3)CC21)C1CCCCC1 (stereo in doubt) [LBW-242, N-[1-cyclohexyl-2-oxo-2-(6-phenethyl-octahydro-pyrrolo[2,3-c]pyridin-1-yl)-ethyl]-2-methylamino-propionamide]
[1]
  B cell proliferation: Substantial
  CD4 T cell proliferation: significant
[1]; [6]
  IFN-γ secretion: significantly enhanced
  IL-2 levels: significantly reduced
[2]; 500 nM, 24 hours
  NKT cells in culture (anti-CD3 and α-galcer loaded CD1d tetramers): still detectable in culture at normal frequencies
[2]; [7]
  apoptosis (annexin V and 7-AAD): nor did it contribute to apoptosis
  total number of T cells (viable cells, trypan blue exclusion): did not alter
[2]; no stimulation
  apoptosis in the absence of stimulation: no discernible effect
BALB/c spleen cells
  IFN-γ secretion: increased secretion
  IL-2 secretion: increased secretion
B cells
  IL-6 production: increased
Splenic CD4+ T cells; isotype control, no stimulation
  effects from IAP inhibition in the absence of stimulation: No effects
Splenic CD4+ T cells; unfractionated BALB/c or C57BL/6 CD4+ T cells, anti-CD3 and anti-CD28, 48 hours
  IL-2 production: similar, dose-dependent effect
B16 mouse melanoma cells
  tumor burden following challenge with live B16 cells: reduced
[3]
  IL-12 p40 production, partially activated DCs: increased
JNK and NF-κB pathways; 500 nM
  bcl-10 levels in activated T cells: did not lead to a detectable change
JNK and NF-κB pathways; 500 nM, anti-CD3 and anti-CD28, versus control compound LCV-843
  activation of JNK and NF-κB pathways (JNK phosphorylation, IκB degradation): activated more rapidly
JNK and NF-κB pathways; no stimulation
  JNK phosphorylation and IκB degradation in the absence of stimulation: No changes
CD8+ T cells
  IFN-γ production: excess
  IL-2 production: excess
[4]
  cytokine (IL-2) secretion of XIAP deficient T cells: only a small increase
[5]
  reduced IL-2 secretion of ML-IAP transgenic T cells: could be modulated
